Data published in patent publication US20180289008A1, “METHODS FOR WILDFIRE CONTROL, INVASIVE PLANT CONTROL, AND RESIDUAL CONTROL OF INVASIVE PLANTS” (priority 2017, published 2018).
Several values for one entry are separate records, joined by “and”; a condition that tells them apart may be missing. Equal entries are not always repeated. Where two headings read alike, the source gives them in different places.

Key:
[1] = tested on: Common mullein (Verbascum thapsus); test: Greenhouse pre-emergence dose-response bioassay (GR50); assay type: in vivo
Text: (§1) A greenhouse experiment was designed to determine if the extended control of Dalmatian toadflax and downy brome provided by indaziflam in the field was due to increased residual seedling control. This experiment was designed to compare indaziflam's pre-emergence efficacy to the currently recommended herbicides (aminocyclopyrachlor and aminopyralid) for annual, biennial, and perennial weed control in non-crop areas. […] This allows for direct comparisons between herbicides on an active ingredient basis for aminopyralid, aminocyclopyrachlor, and indaziflam.
(§2) For the greenhouse bioassay, seeds were planted at a constant depth of 0.5 cm in 13- by 9- by 6-cm plastic containers, filled with an Otero sandy clay loam field soil (Coarse-loamy, mixed (calcareous), mesic Aridic Ustorthents) with 3.9% OM and pH 7.7. Seeding densities were adjusted based on germinability to reach a target density of 40 plants/pot. Plants were maintained in a greenhouse with a 25/20° C. day/night temperature with natural light supplemented with high-intensity discharge lamps to give a 15-h photoperiod. Plants were sub-irrigated as needed and misted overhead daily to reduce soil crusting.
(§3) The greenhouse experiment was a completely randomized design with a factorial of seven herbicide rates and a non-treated control with three replicates per treatment. The experiments were conducted at two different times. A preliminary greenhouse study was conducted for each herbicide and species to determine a range of doses that would best fit a logistic regression. It is not unusual for both pre-emergence and post-emergence herbicides to provide control at lower than labeled rates, e.g., 0.5-560 g ai ha^−1 (aminocyclopyrachlor), 0.9-224 g ai ha^−1 (aminopyralid), and 0.05-11.7 g ai ha^−1 (indaziflam) in the greenhouse with ideal environmental conditions, so it was not surprising that herbicide doses for the regression analysis were much lower than recommended field use rates. Herbicides were applied pre-emergence using a Generation III research track sprayer (DeVries Manufacturing, Hollandale, Minn.) equipped with a TeeJet 8002 EVS flat-fan spray nozzle (TeeJet Spraying Systems Co., Wheaton, Ill.) at 187 L·ha-1 at 172 kPa.
(§4) Plants were harvested at the soil surface approximately 4 to 5 week-after-treatment (WAT) depending on the growth stage of each species. Weights were recorded after samples were dried for 5 days at 60° C. Percent dry weight reduction was calculated relative to the non-treated control plants for each treatment.
(§5) Data from the greenhouse dose-response experiment were first analyzed using the PROC MIXED method in SAS 9.3 with treatment as a fixed effect and experiment and replicate as random effects (SAS Institute 2010). Based on a non-significant homogeneity of variance (ANOVA) and experiment-by-herbicide rate interaction, results from the repeated experiments were pooled. The treatment effect was significant, therefore, nonlinear regression in Graphpad Prism 7.00 (GraphPad Software, La Jolla Calif. USA) was used to describe the response of the nine weed species to aminocyclopyrachlor, aminopyralid, and indaziflam. The herbicide concentrations resulting in 50% reduction in plant biomass (GR50) compared to the non-treated control were determined for each invasive weed species using four-parameter log-logistic regression. The equation used to regress herbicide concentration with percent reduction in plant dry biomass as compared to the non-treated control was:
(§6) where C and D represent the lower and upper limits of the dose-response curve, respectively, and b represents the slope of the best-fitting curve through the GR50 value. For curve fitting and GR50 estimation, the model was constrained to a maximum of 100 and minimum of 0. Mean separation of herbicide GR50 values were analyzed by Fisher's Protected LSD test at the 5% level of probability. […]

[2] = tested on: Common teasel (Dipsacus fullonum); test: as above; assay type: in vivo
Text: as §1, §2, §3, §4, §5, §6

[3] = tested on: Curly dock (Rumex crispus); test: as above; assay type: in vivo
Text: as §1, §2, §3, §4, §5, §6

[4] = tested on: Dalmatian toadflax (Linaria dalmatica); test: as above; assay type: in vivo
Text: as §1, §2, §3, §4, §5, §6

[5] = tested on: Diffuse knapweed (Centaurea diffusa); test: as above; assay type: in vivo
Text: as §1, §2, §3, §4, §5, §6

[6] = tested on: Halogeton (Halogeton glomeratus); test: as above; assay type: in vivo
Text: as §1, §2, §3, §4, §5, §6

[7] = tested on: Marestail (Conyza Canadensis); test: as above; assay type: in vivo
Text: as §1, §2, §3, §4, §5, §6

[8] = tested on: Musk thistle (Carduus nutans); test: as above; assay type: in vivo
Text: as §1, §2, §3, §4, §5, §6

[9] = tested on: downy brome (Bromus tectorum); test: as above; assay type: in vivo
Text: as §1, §2, §3, §4, §5, §6

all nine weed species = test: Greenhouse pre-emergence dose-response bioassay, across all nine weed species; assay type: in vivo; settings: averaging across all nine weed species
Text: as §1, with “indaziflam. […]” for “indaziflam.”
as §4
Data from the greenhouse dose-response experiment were first analyzed using the PROC MIXED method in SAS 9.3 with treatment as a fixed effect and experiment and replicate as random effects (SAS Institute 2010). […] The herbicide concentrations resulting in 50% reduction in plant biomass (GR50) compared to the non-treated control were determined for each invasive weed species using four-parameter log-logistic regression. […]

[10] = tested on: downy brome, common mullein, Canada thistle, teasel, houndstongue, Scotch thistle, diffuse knapweed, field bindweed; test: Seedling control of invasive weeds versus untreated (FIG. 4A-4D); settings: in vivo
[11] = pH 7; cited from earlier work
[12] = average; cited from earlier work

SMILES: Cc1ccc2c(c1)[C@H](Nc1nc(N)nc(C(C)F)n1)[C@@H](C)C2 (mixture of isomers) [Indaziflam, N2-[(1R,2S)-2,3-dihydro-2,6-dimethyl-1H-inden-1-yl]-6-[(1RS)-1-fluoroethyl]-1,3,5-triazine-2,4-diamine]
- GR50 ratio Aminocyclopyrachlor/Indaziflam [1]: 44.57
- GR50 ratio Aminopyralid/Indaziflam [1]: 106 and 106.43
- GR50 (herbicide dose resulting in 50% dry biomass reduction) ([1]; pre-emergence): 0.07 a g ai ha^−1
- GR50 ratio Aminocyclopyrachlor/Indaziflam [2]: 5.18
- GR50 ratio Aminopyralid/Indaziflam [2]: 0.56
- GR50 (herbicide dose resulting in 50% dry biomass reduction) ([2]; pre-emergence): 1.33 b g ai ha^−1
- GR50 ratio Aminocyclopyrachlor/Indaziflam [3]: 19.36
- GR50 ratio Aminopyralid/Indaziflam [3]: 1.14
- GR50 (herbicide dose resulting in 50% dry biomass reduction) ([3]; pre-emergence): 1.10 a g ai ha^−1
- GR50 ratio Aminocyclopyrachlor/Indaziflam [4]: 19.33
- GR50 ratio Aminopyralid/Indaziflam [4]: 246.67
- GR50 ratio Aminocyclopyrachlor/Indaziflam ([4]; listed as indaziflam): 19
- GR50 ratio Aminopyralid/Indaziflam ([4]; listed as indaziflam): 247
- GR50 (herbicide dose resulting in 50% dry biomass reduction) ([4]; pre-emergence): 0.06 a g ai ha^−1
- GR50 ratio Aminocyclopyrachlor/Indaziflam [5]: 10.69
- GR50 ratio Aminopyralid/Indaziflam [5]: 4 and 4.31
- GR50 (herbicide dose resulting in 50% dry biomass reduction) ([5]; pre-emergence): 0.58 a g ai ha^−1
- GR50 ratio Aminocyclopyrachlor/Indaziflam [6]: 2.89
- GR50 ratio Aminopyralid/Indaziflam [6]: 9 and 8.64
- GR50 (herbicide dose resulting in 50% dry biomass reduction) ([6]; pre-emergence): 0.36 a g ai ha^−1
- GR50 ratio Aminocyclopyrachlor/Indaziflam [7]: 12.29
- GR50 ratio Aminopyralid/Indaziflam [7]: 5 and 4.71
- GR50 (herbicide dose resulting in 50% dry biomass reduction) ([7]; pre-emergence): 0.17 a g ai ha^−1
- GR50 ratio Aminocyclopyrachlor/Indaziflam [8]: 3.79
- GR50 ratio Aminopyralid/Indaziflam [8]: 0.94
- GR50 (herbicide dose resulting in 50% dry biomass reduction) ([8]; pre-emergence): 0.33 a g ai ha^−1
- GR50 ratio Aminocyclopyrachlor/Indaziflam [9]: 144.62
- GR50 ratio Aminopyralid/Indaziflam [9]: 98.72
- GR50 ratio Aminocyclopyrachlor/Indaziflam ([9]; listed as indaziflam): 125
- GR50 ratio Aminopyralid/Indaziflam ([9]; listed as indaziflam): 99
- GR50 (herbicide dose resulting in 50% dry biomass reduction) ([9]; pre-emergence): 0.39 a g ai ha^−1
- times more active than aminocyclopyrachlor (all nine weed species): 29
- times more active than aminopyralid (all nine weed species): 52
- seedling control of invasive weeds compared with the untreated (FIG. 4A-4D) [10]: improved seedling control of invasive weeds
- Log Kow [11]: 2.8
- water solubility [12]: 3.6 µg/mL
